Reference: patent US5578445A, “In vitro method of evaluating the effects of a substance” (priority 1991, dated 1996)
Where two headings read alike, the source gives them in different places.

Key:
ZR 75-1 = experiment: Proliferation, amount of ATP after 6 days, ZR 75-1; assay type: cell-based, human; settings: for activity at 0.0001 µM: +E2 (0.1 nM), 6 days
Description: The growth is determined by measuring the amount of ATP in the cells after incubation with ligands for 6 days. […]
Samples of the cells ZR 75-1 (8000 cells/well) and MCF7 (4000 cells/well), respectively, were distributed into microtiter plates having 96 wells.
The following hormone additions were made:
The medium was replaced by fresh medium of the same composition as on day 6, and hormone additions as on day 6.
6 days after hormone addition the number of cells and their morphology were investigated. Medium from each well was poured off. To each well was added 100 μl 1% TCA (trichloro acetic acid).

MCF7 = experiment: Proliferation, amount of ATP after 6 days, MCF7; settings: for activity at 0.0001 µM: +E2 (0.1 nM); for effect on growth: MCF7

What does the source list for C[C@]12CC[C@@H]3c4ccc(O)cc4CC[C@H]3[C@@H]1CC[C@@H]2O [E2, estradiol]?
effect on growth (ZR 75-1; 0.1 nM E2): increase their growth dramatically; activity at 0.0001 µM (ZR 75-1; Homo sapiens, ZR-75-1, 144 h, No LY 117018 added, Experiment 2, read-out: relative amount of ATP (no hormone added = 1)): 468%; activity at 0.0001 µM (ZR 75-1; Homo sapiens, ZR-75-1, 144 h, No Tam added, Experiment 1, read-out: relative amount of ATP (no hormone added = 1)): 351%; activity at 0.0001 µM (MCF7; Homo sapiens, MCF7, 144 h, read-out: relative amount of ATP (no hormone added = 1), MCF7, No LY 117018 added, 6 days, Experiment 2): 230%; activity at 0.0001 µM (MCF7; Homo sapiens, MCF7, 144 h, read-out: relative amount of ATP (no hormone added = 1), MCF7, No Tam added, 6 days, Experiment 1): 266%; effect on growth (MCF7; 0.1 nM E2): increase their growth dramatically

With CC/C(=C(\c1ccccc1)c1ccc(OCCN(C)C)cc1)c1ccccc1 [Tam, tamoxifen] as the compound, how does the effect on growth (ZR 75-1; 10^-7 M Tamoxifen alone, listed as Tamoxifen) read?
Its effect on growth is “functions as a weak agonist”.

What about the effect on growth (ZR 75-1; 10^-7 M Tamoxifen alone, listed as tamoxifen) of the same compound?
The effect on growth was “weak agonistic effect”.

And the activity at 1 µM (ZR 75-1; Homo sapiens, ZR-75-1, 144 h, + 10^-6 M Tam, -E2, 6 days, read-out: relative amount of ATP (no hormone added = 1))?
The activity at 1 µM was 131%.

And the activity at 0.1 µM (ZR 75-1; Homo sapiens, ZR-75-1, 144 h, + 10^-7 M Tam, -E2, 6 days, read-out: relative amount of ATP (no hormone added = 1))?
Its activity at 0.1 µM is 155%.

What about the activity at 0.01 µM (ZR 75-1; Homo sapiens, ZR-75-1, 144 h, + 10^-8 M Tam, -E2, 6 days, read-out: relative amount of ATP (no hormone added = 1)) of the same compound?
The activity at 0.01 µM was 109%.

What about the activity at 0.001 µM (ZR 75-1; Homo sapiens, ZR-75-1, 144 h, + 10^-9 M Tam, -E2, 6 days, read-out: relative amount of ATP (no hormone added = 1)) of the same compound?
The activity at 0.001 µM was 91%.

And the “Tamoxifen concentration at which an antagonistic effect can be seen” value (ZR 75-1; presence of 0.1 nM E2)?
The value was 10^-6 M.

What about the activity at 1 µM (MCF7; Homo sapiens, MCF7, 144 h, read-out: relative amount of ATP (no hormone added = 1), MCF7, + 10^-6 M Tam, -E2, 6 days) of the same compound?
The activity at 1 µM was 94%.

And the activity at 0.1 µM (MCF7; Homo sapiens, MCF7, 144 h, read-out: relative amount of ATP (no hormone added = 1), MCF7, + 10^-7 M Tam, -E2, 6 days)?
Its activity at 0.1 µM is 109%.

And the activity at 0.01 µM (MCF7; Homo sapiens, MCF7, 144 h, read-out: relative amount of ATP (no hormone added = 1), MCF7, + 10^-8 M Tam, -E2, 6 days)?
The activity at 0.01 µM was 122%.

What about the activity at 0.001 µM (MCF7; Homo sapiens, MCF7, 144 h, read-out: relative amount of ATP (no hormone added = 1), MCF7, + 10^-9 M Tam, -E2, 6 days) of the same compound?
The activity at 0.001 µM was 96%.

And the effect on growth (MCF7; Tamoxifen alone)?
Its effect on growth is “has no effect”.
